| Compound | logP |
| --- | --- |
| CC[C@H]1OC(=O)[C@H](C)[C@@H](O[C@H]2C[C@@](C)(OC)[C@@H](O)[C@H](C)O2)[C@H](C)[C@@H](O[C@@H]2O[C@H](C)C[C@H](N(C)C)[C@H]2O)[C@](C)(O)C[C@@H](C)C(=O)[C@H](C)[C@@H](O)[C@]1(C)O | 3.06 |
| CCC1OC(=O)C[C@@H](O)[C@H](C)[C@@H](O[C@@H]2O[C@H](C)C[C@H](N(C)C)[C@H]2O)[C@@H](CC=O)C[C@@H](C)C(=O)C=C[C@]2(C)OC2C1C (stereo not given in full) | 2.19 |
| COC1C(OC(C)=O)CC(=O)OC(C)CC2OC2C=CC(=O)C(C)CC(CC=O)C1OC1OC(C)C(O)C(N(C)C)C1O (stereo not given) | 0.3 |
| CO[C@@H]1[C@@H](O[C@@H]2O[C@H](C)[C@@H](O[C@H]3C[C@@](C)(O)[C@@H](OC(=O)CC(C)C)[C@H](C)O3)[C@H](N(C)C)[C@H]2O)[C@@H](CC=O)C[C@@H](C)C(=O)C=CC2OC2C[C@@H](C)OC(=O)C[C@H]1OC(C)=O (stereo not given in full) | 3.04 |
| CC[C@H]1OC(=O)[C@H](C)[C@@H](O[C@H]2C[C@@](C)(OC)[C@@H](O)[C@H](C)O2)[C@H](C)[C@@H](O[C@@H]2O[C@H](C)C[C@H](N(C)C)[C@H]2O)[C@](C)(O)C[C@@H](C)CN(C)[C@H](C)[C@@H](O)[C@]1(C)O | 4.02 |
| CCC1OC(=O)CC(O)C(C)C(OC2OC(C)C(O)C(N(C)C)C2O)C(CC=O)CC(C)C(=O)C=CC(C)=CC1CO (stereo not given) | 0.99 |
| CCC1OC(=O)C(C)C(OC2CC(C)(OC)C(O)C(C)O2)C(C)C(OC2OC(C)CC(N(C)C)C2O)C(C)(O)CC(C)C(N)C(C)C2OC(=O)OC12C (stereo not given) | 2.92 |
| CO[C@H]1C[C@H](O[C@H]2[C@H](C)[C@@H](O[C@@H]3O[C@H](C)C[C@H](N(C)C)[C@H]3O)[C@@H](C)C[C@]3(CO3)C(=O)[C@H](C)[C@@H](O)[C@@H](C)[C@@H](C)OC(=O)[C@@H]2C)O[C@@H](C)[C@@H]1O | 1.69 |
| CC[C@H]1OC(=O)C[C@@H](O)[C@H](C)[C@@H](O[C@@H]2O[C@H](C)[C@@H](O)[C@H](N(C)C)[C@H]2O)[C@@H](CCN2C[C@H](C)C[C@H](C)C2)C[C@@H](C)C(=O)C=CC(C)=C[C@@H]1CO[C@@H]1O[C@H](C)[C@@H](O)[C@@H](OC)[C@H]1OC | 3.8 |
| CC[C@H]1OC(=O)C[C@@H](O)[C@H](C)[C@@H](O[C@@H]2O[C@H](C)[C@@H](O[C@H]3C[C@@](C)(O)[C@@H](O)[C@H](C)O3)[C@H](N(C)C)[C@H]2O)[C@@H](CC=O)C[C@@H](C)C(=O)C=CC(C)=CC1CO[C@@H]1O[C@H](C)[C@@H](O)[C@@H](OC)[C@H]1OC (stereo not given in full) | 1.63 |

— the OPERA property sets (Mansouri et al. 2018)
